Source: PubChem BioAssay AID248 (DTP/NCI, 2004)
Several values for one entry are separate records, joined by “and”; a condition that tells them apart may be missing. Equal values may be shown once. Inconclusive results and toxic doses are left out. Rule as the data show it: active = T/C of 150% or more; inactive = T/C below 125%. Peptide text beside a SMILES is read from it. * marks the point of attachment. Cbz = O=C(OCc1ccccc1)*

System: L1210 leukemia ip in BDF1 mice, survival T/C
Assay: NCI In Vivo Anticancer Drug Screen. Data for tumor model L1210 Leukemia (intraperitoneal) in B6D2F1 (BDF1) mice
Details: endpoint: mean survival time, higher = longer survival
Outline: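 Tumor cells were implanted, animals were treated, and survival was followed. The result divides the treated measurement by the vehicle-control measurement.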

[1] = dose: 100.0 mg/kg/injection, schedule: Q04DX003 (ip), vehicle: saline with Tween-80
[2] = dose: 200.0 mg/kg/injection, schedule: Q04DX003 (ip), vehicle: saline with Tween-80
[3] = dose: 400.0 mg/kg/injection, schedule: Q04DX003 (ip), vehicle: saline with Tween-80
[4] = dose: 100.0 mg/kg/injection, schedule: Q04DX002 (ip), vehicle: Klucel (hydroxypropylcellulose) (HPC)
[5] = dose: 200.0 mg/kg/injection, schedule: Q04DX002 (ip), vehicle: Klucel (hydroxypropylcellulose) (HPC)
[6] = dose: 400.0 mg/kg/injection, schedule: Q04DX002 (ip), vehicle: Klucel (hydroxypropylcellulose) (HPC)
[7] = dose: 100.0 mg/kg/injection, schedule: Q04DX003 (ip), vehicle: saline
[8] = dose: 100.0 mg/kg/injection, schedule: Q04DX003 (ip), vehicle: Klucel (hydroxypropylcellulose) (HPC)
[9] = dose: 100.0 mg/kg/injection, schedule: Q01DX001 (ip), vehicle: Klucel (hydroxypropylcellulose) (HPC)
[10] = dose: 200.0 mg/kg/injection, schedule: Q01DX001 (ip), vehicle: Klucel (hydroxypropylcellulose) (HPC)
[11] = dose: 400.0 mg/kg/injection, schedule: Q01DX001 (ip), vehicle: Klucel (hydroxypropylcellulose) (HPC)

Measured: T/C

CC(C)=CC(=O)OC(=O)C=C(C)C
inactive: dose: 100.0 mg/kg/injection, schedule: Q01DX009 (ip), vehicle: other 105 % of control | [1] 98 % of control | dose: 200.0 mg/kg/injection, schedule: Q01DX009 (ip), vehicle: other 88 % of control | [2] 96 % of control | dose: 400.0 mg/kg/injection, schedule: Q01DX009 (ip), vehicle: other 91 % of control | [3] 89 % of control

O=C(Nc1ccccc1C(F)(F)F)Oc1ccc(Cl)cc1Cl
inactive: dose: 100.0 mg/kg/injection, schedule: Q01DX009 (ip), vehicle: saline with Tween-80 103 % of control | [1] 94 % of control | dose: 200.0 mg/kg/injection, schedule: Q01DX009 (ip), vehicle: saline with Tween-80 99 % of control | [2] 102 % of control | [3] 86 % of control

CC[n+]1c(C=Nc2ccc(N(C)C)cc2)sc2ccccc21
inactive: dose: 3.13 mg/kg/injection, schedule: Q04DX003 (ip), vehicle: carboxymethylcellulose (CMC) 107 % of control | dose: 6.25 mg/kg/injection, schedule: Q04DX003 (ip), vehicle: carboxymethylcellulose (CMC) 98 % of control | dose: 12.5 mg/kg/injection, schedule: Q04DX002 (ip), vehicle: carboxymethylcellulose (CMC) 104 % of control and 106 % of control | dose: 12.5 mg/kg/injection, schedule: Q04DX003 (ip), vehicle: carboxymethylcellulose (CMC) 96 % of control and 100 % of control | dose: 25.0 mg/kg/injection, schedule: Q04DX002 (ip), vehicle: carboxymethylcellulose (CMC) 109 % of control and 116 % of control

O=c1[nH]nnc2[nH]ncc12
inactive: [1] 102 % of control | [2] 104 % of control | [3] 98 % of control

O=C1OC2CCCCC2/C1=C/OS(=O)(=O)C(F)(F)F (stereo not drawn)
inactive: dose: 12.5 mg/kg/injection, schedule: Q01DX009 (ip), vehicle: DMSO 105 % of control | dose: 25.0 mg/kg/injection, schedule: Q01DX009 (ip), vehicle: DMSO 103 % of control | dose: 50.0 mg/kg/injection, schedule: Q01DX009 (ip), vehicle: DMSO 110 % of control | dose: 100.0 mg/kg/injection, schedule: Q01DX009 (ip), vehicle: DMSO 110 % of control | dose: 200.0 mg/kg/injection, schedule: Q01DX009 (ip), vehicle: DMSO 117 % of control

CC(C)OC(=O)Nc1ccc(C(F)(F)F)cc1
inactive: [4] 97 % of control and 100 % of control | [5] 88 % of control | [6] 103 % of control and 112 % of control

CC(=O)Nc1ccc(/C=N\N=C\c2ccc(NC(C)=O)cc2)cc1
inactive: dose: 100.0 mg/kg/injection, schedule: Q01DX009 (ip), vehicle: saline 88 % of control | [7] 100 % of control | dose: 200.0 mg/kg/injection, schedule: Q01DX009 (ip), vehicle: saline 86 % of control | dose: 200.0 mg/kg/injection, schedule: Q04DX003 (ip), vehicle: saline 105 % of control | dose: 400.0 mg/kg/injection, schedule: Q04DX003 (ip), vehicle: saline 100 % of control

Oc1c(Br)cc(Br)cc1C=Nc1ccc(Br)cc1.Oc1c(Br)cc(Br)cc1C=Nc1ccc(Br)cc1.[Co]
inactive: [1] 95 % of control | [2] 95 % of control | [3] 95 % of control

Cc1cccc(Cl)c1NC(=S)Nc1ccccc1
inactive: [4] 101 % of control | [5] 94 % of control | [6] 97 % of control

O=C1c2cc(Br)ccc2-c2c(N=Cc3ccc4c(c3)OCO4)cc(Br)cc21
inactive: dose: 100.0 mg/kg/injection, schedule: Q01DX001 (ip), vehicle: other 95 % of control | dose: 200.0 mg/kg/injection, schedule: Q01DX001 (ip), vehicle: other 103 % of control | dose: 400.0 mg/kg/injection, schedule: Q01DX001 (ip), vehicle: other 106 % of control

CC(NC(=O)OCc1ccccc1)C(=O)NC(CC(N)=O)C(=O)O (stereo not drawn) (Cbz-Ala-Asn-OH; configuration not given here)
inactive: dose: 25.0 mg/kg/injection, schedule: Q04DX002 (ip), vehicle: Klucel (hydroxypropylcellulose) (HPC) 95 % of control | dose: 50.0 mg/kg/injection, schedule: Q04DX002 (ip), vehicle: Klucel (hydroxypropylcellulose) (HPC) 95 % of control | [4] 95 % of control

CCCCCCCN(CCCCCCC)CCC(=O)c1ccc2cc(Br)c3ccccc3c2c1
inactive: dose: 55.0 mg/kg/injection, schedule: Q01DX Z (ip), vehicle: methylcellulose (MC) 97 % of control | dose: 83.0 mg/kg/injection, schedule: Q01DX Z (ip), vehicle: methylcellulose (MC) 86 % of control | dose: 125.0 mg/kg/injection, schedule: Q01DX Z (ip), vehicle: methylcellulose (MC) 97 % of control

N#C/C(=C\c1ccco1)C1CCC([N+](=O)[O-])CC1 (stereo not drawn)
inactive: [4] 104 % of control | [5] 104 % of control | [6] 93 % of control

O=C(Cc1ccccc1)c1ccc2c3c(ccc([N+](=O)[O-])c13)CC2
inactive: dose: 100.0 mg/kg/injection, schedule: Q04DX003 (ip), vehicle: acetone 101 % of control | dose: 200.0 mg/kg/injection, schedule: Q04DX003 (ip), vehicle: acetone 105 % of control | dose: 400.0 mg/kg/injection, schedule: Q04DX003 (ip), vehicle: acetone 105 % of control

O=C(O)/C=C/c1ccccc1Cl
inactive: dose: 25.0 mg/kg/injection, schedule: Q04DX003 (ip), vehicle: Klucel (hydroxypropylcellulose) (HPC) 94 % of control | dose: 50.0 mg/kg/injection, schedule: Q04DX003 (ip), vehicle: Klucel (hydroxypropylcellulose) (HPC) 103 % of control | [8] 96 % of control

COP(S)(=N/N=C/c1ccccn1)OC
inactive: dose: 12.5 mg/kg/injection, schedule: Q04DX003 (ip), vehicle: saline with Tween-80 104 % of control | dose: 25.0 mg/kg/injection, schedule: Q04DX003 (ip), vehicle: saline with Tween-80 95 % of control

Cc1ccc(N=Nc2ccc(N(C)C)cc2)c2cccnc12
inactive: [1] 113 % of control | [2] 95 % of control

CCCC1(CN2c3ccccc3Sc3ccc(Cl)cc32)CCN(CC)C1 (stereo not drawn)
inactive: [7] 90 % of control

CCOc1ccn(C2OC(CI)C(OC3OC(COC(C)=O)C(OC(C)=O)C(OC(C)=O)C3OC(C)=O)C(OC(C)=O)C2OC(C)=O)c(=O)n1 (stereo not drawn)
inactive: dose: 22.5 mg/kg/injection, schedule: Q01DX001 (ip), vehicle: carboxymethylcellulose (CMC) 100 % of control | dose: 45.0 mg/kg/injection, schedule: Q01DX001 (ip), vehicle: carboxymethylcellulose (CMC) 100 % of control | dose: 90.0 mg/kg/injection, schedule: Q01DX001 (ip), vehicle: carboxymethylcellulose (CMC) 97 % of control | dose: 180.0 mg/kg/injection, schedule: Q01DX001 (ip), vehicle: carboxymethylcellulose (CMC) 103 % of control

CC(C)CCCC(C)C1CCC2C3CCC4(C)CCCCC4(C)C3CCC12C (stereo not drawn)
inactive: [9] 98 % of control | [10] 94 % of control | [11] 109 % of control

O=C(O)CNCc1ccc2c(c1)OCCO2
inactive: [9] 108 % of control | [10] 92 % of control | [11] 95 % of control

O=S(=O)(NC(CCl)=NCc1ccccc1)c1ccccc1
inactive: [4] 96 % of control | [5] 100 % of control | [6] 86 % of control

O=C1/C(=C/c2ccccc2)CCC2CCCCC12 (stereo not drawn)
inactive: [1] 94 % of control | [2] 100 % of control | [3] 94 % of control

CC(=O)OCC1C2c3ccccc3C(c3ccccc32)C1CBr (stereo not drawn)
inactive: dose: 100.0 mg/kg/injection, schedule: Q01DX009 (ip), vehicle: Klucel (hydroxypropylcellulose) (HPC) 91 % of control | [8] 93 % of control | dose: 200.0 mg/kg/injection, schedule: Q01DX009 (ip), vehicle: Klucel (hydroxypropylcellulose) (HPC) 94 % of control | dose: 200.0 mg/kg/injection, schedule: Q04DX003 (ip), vehicle: Klucel (hydroxypropylcellulose) (HPC) 94 % of control | dose: 400.0 mg/kg/injection, schedule: Q01DX009 (ip), vehicle: Klucel (hydroxypropylcellulose) (HPC) 88 % of control | dose: 400.0 mg/kg/injection, schedule: Q04DX003 (ip), vehicle: Klucel (hydroxypropylcellulose) (HPC) 98 % of control
